According to PMC4939023, “Efficacy of delayed treatment of China-made Peramivir with repeated intravenous injections in a mouse influenza model: from clinical experience to basal experiment” (BMC Infectious Diseases, 2016):
Where “and” joins values, the source holds several entries; their conditions need not be identical. Identical values can stand only once. Entries after “also recorded” stand apart in the source; their conditions may differ. Like-named read-outs stand apart in the source and are kept apart here.

What was measured:
[1] = test system: Influenza A H1N1pdm2009 (A/GZ/GIRD07/09, H1N1); set-up: species or system BALB/C mice; conditions: mouse, in vivo
[2] = test system: Influenza A H1N1pdm2009 (A/GZ/GIRD07/09, H1N1); set-up: species or system BALB/C mice; conditions: mouse, in vivo; remark: listed apart in the source
H7N9 = test system: H7N9; set-up: species or system human patients; conditions: human, in vivo
influenza A/H1N1 = conditions: cited from earlier work; for weight loss and mortality: single intramuscular injection 10 mg/kg, mice infected with influenza A/H1N1
[3] = test system: Influenza A H1N1pdm2009 (A/GZ/GIRD07/09, H1N1); set-up: species or system BALB/C mice; conditions: mouse, in vivo; remark: listed apart in the source
[4] = test system: Influenza B (B/Guangzhou/GIRD08/09); set-up: species or system BALB/C mice; conditions: mouse, in vivo
[5] = mouse, in vivo
influenza [6] = conditions: given as late as 60 h after infection; cited from earlier work
[7] = test system: influenza A (H1N1) 2009 virus; conditions: cited from earlier work
[8] = cited from earlier work
influenza virus = conditions: repeated intravenous injections for 5 days, patients at high risk of complications; cited from earlier work
influenza [9] = conditions: cited from earlier work
[10] = oral administration; no reference given; cited from earlier work

CCOC(=O)C1=C[C@@H](OC(CC)CC)[C@H](NC(C)=O)[C@@H](N)C1 [Oseltamivir]
efficacy of delayed treatment (survival) [1]: no efficacy
lung virus titer vs virus group [2]: reduced
Clinical outcome (H7N9): Survival; also recorded: Death
weight loss and mortality (influenza A/H1N1): no efficacy

CCC(CC)[C@H](NC(C)=O)[C@@H]1[C@H](O)[C@@H](C(=O)O)C[C@H]1N=C(N)N [Peramivir]
efficacy of delayed treatment (survival rate) vs virus group [1]: efficacy was observed
efficacy of delayed treatment (survival) [1]: no efficacy
mean number of days to death [1]: > 15 days
survival rate [1]: 100% and 80% and 70%
survival rate vs virus group [1]: enhanced
difference in weight loss suppression compared with the virus group ([1]; iv, 60 mg/kg): about 9%
weight loss suppression compared with the virus group ([1]; iv, 60 mg/kg): significant weight loss suppression
lung virus titer vs virus group [2]: reduced lung virus titers
lung index vs virus group [3]: improvement
lung index vs virus group [4]: improved
Clinical outcome (H7N9): Survival; also recorded: Death
treatment efficacy in H7N9 patients (H7N9): a degree of treatment efficacy; also recorded: some treatment efficacy
concentration in the blood of virus-infected mice compared with normal mice [5]: no significant differences
prevention of death (influenza A/H1N1; single intramuscular dose 10 mg/kg administered at 24 or 48 h p.i.): prevented death
weight loss and mortality (influenza A/H1N1): significantly reduces weight loss and mortality
prevention of death (influenza [6]): able to prevent death
survival rates and viral titers in the lungs ([7]; 40 mg/kg·d i.v. QD x 20 days starting at 24, 48 or 72 h p.i.): increased survival rates and reduced viral titers in the lungs
drug-related toxicity ([7]; repeated intravenous injections 40 mg/kg·d for 20 days): no obvious signs of drug-related toxicity
toxicity or side effects ([8]; 1000 mg/kg·d administered for 5 days): no signs of toxicity or side effects
toxicity or side effects ([8]; doses as high as 3000 mg/kg·d administered as a single dose): no signs of toxicity or side effects
clinical effect (influenza virus): beneficial effects
safety (influenza virus): no major safety issues
in vitro activity relative to Oseltamivir carboxylate and Zanamivir (influenza [9]): comparable to, or better than
oral bioavailability [10]: ≤ 3%

CC(=O)N[C@H]1[C@H]([C@H](O)[C@H](O)CO)OC(C(=O)O)=C[C@@H]1N=C(N)N [Zanamivir]
Clinical outcome (H7N9): Death; also recorded: Survival
